# Test results published in patent publication US10238710B2, “Peptide having anti-inflammatory, osteogenic and hair growth promoting activities, and use of same” (CAREGEN CO., LTD., priority 2014, dated 2019).
# How the values were obtained:
# IL-1β = IL-1β ELISA in THP-1 cells treated with TNF-α; assay type: cell-based, human; settings: 10 μg/ml pre-treatment 30 minutes, 50 ng/ml TNF-α, 24 hours
# Description: The human monocytes, THP-1 cells were seeded on a 24-well plate at a density of 2×10^6 cells/well. After incubation overnight, the cells were pre-treated with the samples at 10 μg/ml for 30 minutes, and treated with 50 ng/ml TNF-α, followed by incubation for 24 hours. The cell incubation medium was obtained, followed by centrifugation at 13,000 rpm for 10 minutes at 4° C., and then the supernatant was separated. ELISA was carried out using IL-1b and IL-8 ELISA kit (R&D system).
# Phospho-PI3K = assay: Western blotting using osteoblasts (PI3K phosphorylation); assay type: cell-based; settings: mouse osteoblast line, 50 μg/ml, 15 minutes
# Description: The cells were treated with the peptides at 50 μg/ml for 15 minutes (positive control: HGF 50 ng/ml). The cells were treated with the cell lysis buffer to obtain a lysate, followed by protein quantification, and then western blotting was performed with respect to Phospho-PI3K (P-PI3K) using anti-pPI3K antibody (Santa Cruz Biotechnology, USA).
# MC3T3-E1 cells = assay: Alizarin red staining (mineralization) of MC3T3-E1 cells; assay type: cell-based, mouse; settings: MC3T3-E1, 10 and 50 μg/ml, 14 days
# Description: Here, the medium exchange every three days and the treatment with the peptide were repeated (positive control: 30 ng/ml rhBMP2 (Cell signaling)). After the completion of the incubation, the plate well was washed two times with PBS, and the cells were immobilized by the treatment with 70% EtOH for 1 hour. Then, the cells were stained with 40 mM Alizarin red S (pH 4.2, Sigma Aldrich) for 10 minutes. The cells were treated with 10% cetyl pyridinium chloride (dissolved in 10 mM sodium phosphate (pH 7.0)) for 15 minutes, and then the absorbance was read at 560 nm using a spectrophotometer (SpectraMax, Molecular Devices).
# osteoprotegerin (OPG) = assay: RT-PCR of osteogenic differentiation marker OPG; assay type: cell-based, mouse; settings: MC3T3-E1, three days
# bone sialoprotein (BSP) = assay: RT-PCR of osteogenic differentiation marker BSP; assay type: cell-based, mouse; settings: MC3T3-E1, three days
# [1] = tested on: human hair follicle dermal papilla cells (HFDPC); assay: Cell proliferation assay (SRB), HFDPC; assay type: cell-based; settings: 1, 10 and 50 μg/ml, 72 hours
# Description: (§1) In order to observe the cell proliferation effect on human hair follicle dermal papilla cells, human hair follicle germinal matrix cells, and human umbilical vein endothelial cells, which are main hair cells, each type of cells were seeded on a 96-well plate at a density of 3×10^3 cells/well, followed by incubation under conditions of 37° C. and 5% CO2 for 24 hours. After the medium was exchanged with the same culture medium completely excluding serum, the cells were treated with the peptides at different concentrations (1 μg/ml, 10 μg/ml, and 50 μg/ml), followed by incubation under the same conditions for 72 hours. After the incubation supernatant was removed, the cells were immobilized using ethanol, and washed three times with phosphate buffer saline (PBS). The wash solution was removed, and the cells were stained through the treatment with colorimetric SRB solution. After the cells were sufficiently washed with 1% acetic acid, the cells were observed using a microscope to observe the state of living cells. The absorbance was read at UV light of 560 nm, thereby measuring the survival conditions of cells
# [2] = tested on: human hair follicle germinal matrix cells (HFGMC); assay: Cell proliferation assay (SRB), HFGMC; assay type: cell-based; settings: 1, 10 and 50 μg/ml, 72 hours
# Description: as §1
# [3] = tested on: human umbilical vein endothelial cells (HUVEC); assay: Cell proliferation assay (SRB), HUVEC; assay type: cell-based; settings: 1, 10 and 50 μg/ml, 72 hours
# Description: as §1
# Phospho-ERK (pERK) = assay: Western blotting of cell signaling material, ERK phosphorylation; assay type: cell-based, human; settings: HFDPC, 1 and 10 μg/ml, 30 minutes and 60 minutes
# Description: (§2) In order to observe the changes in the phosphorylation of ERK and the expression of PI3K, which are main signaling materials involved in cell proliferation in the human hair follicle dermal papilla cells, the cells were treated with the peptides of the present invention for 30 minutes and 60 minutes, and then subjected to western blotting using specific antibodies, thereby observing the pERK and PI3K changes. The test was carried out using anti-pERK antibody (Santa Cruz Biotechnology, USA) and anti-pPI3K antibody (Santa Cruz Biotechnology, USA).
# (§3) The cells were treated with the cell lysis buffer to obtain a lysate, followed by protein quantification, and then western blotting was performed with respect to Phospho-ERK (pERK), PI3K, and β-catenin.
# PI3K = assay: Western blotting of cell signaling material, PI3K; assay type: cell-based, human; settings: HFDPC, 1 and 10 μg/ml, 30 minutes and 60 minutes
# Description: as §2, §3
# β-catenin = assay: Western blotting of cell signaling material, β-catenin; assay type: cell-based, human; settings: HFDPC, 1 and 10 μg/ml, 30 minutes and 60 minutes
# Description: as §2, §3
# IGF-1 = assay: Western blotting of hair growth protein IGF-1; assay type: cell-based, human; settings: HFDPC, 0.1-50 μg/ml, 24 hours
# Description: (§4) In order to observe the changes in the expression of IGF1, KGF, and Wnt3a, which are proteins involved in the development of hair roots in the human hair follicle dermal papilla cells, the cells were treated with the peptides of the present invention for 24 hours, and then subjected to western blotting using specific antibodies, thereby observing the changes in hair growth-related proteins.
# (§5) The cells were stabilized by the incubation overnight, and then treated with the peptides at different concentrations (0.1-50 μg/ml) for 24 hours. The cells were treated with the cell lysis buffer to obtain a lysate, followed by protein quantification, and then western blotting was performed with respect to IGF-1, KGF, and Wnt3a.
# (§6) The test was carried out using anti-IGF-1 antibody (Santa Cruz Biotechnology, USA), anti-KGF antibody (Santa Cruz Biotechnology, USA), and anti-Wnt3a antibody (Santa Cruz Biotechnology, USA).
# KGF = assay: Western blotting of hair growth protein KGF; assay type: cell-based, human; settings: HFDPC, 0.1-50 μg/ml, 24 hours
# Description: as §4, §5, §6
# DKK-1 = assay: Western blotting of DKK-1 with hair loss causing hormone DHT; assay type: cell-based, human; settings: HFDPC, 5 μg/ml DHT together with peptide 1 and 10 μg/ml, 48 hours
# Description: The cells were treated with DHT and the peptides for 48 hours, and then subjected to western blotting with respect to DKK-1 using specific antibodies, thereby observing the expression of DKK-1.
# The human hair follicle dermal papilla cells were seeded on a 6-well plate at a density of 1×10^5 cells/well. The cells were stabilized by incubation overnight, and then treated with 5 μg/ml DHT (Sigma Aldrich) together with the peptides at different concentrations (1 μg/ml and 10 μg/ml) for 48 hours. The cells were treated with the cell lysis buffer to obtain a lysate, followed by protein quantification, and then western blotting was performed with respect to DKK-1 using anti-DKK-1 antibody (Santa Cruz Biotechnology, USA).
# [4] = tested on: alkaline phosphatase (ALP); settings: MC3T3-E1, three days, RT-PCR
# Description: MC3T3-E1 (mouse osteoblast line) cells were seeded on a 6-well plate at a cell density of 1×10^5 cells/well. The cells incubated overnight were treated with the peptides at different concentrations (10 and 50 μg/ml), followed by incubation in an incubator at 37° C. for three days (positive control: 100 ng/ml BMP2 (Cell signaling)). After the incubation-completed cells were collected, the cells were treated with RNA extraction solution (Easy Blue, Intron) to prepare RNA, and then cDNA was synthesized using RT pre-mix (Intron). PCR was carried out using primers of respective markers (OPG, ALP, BSP) and PCR pre-mix (Intron).
# Target-specific primer sequences used in PCR for osteogenic differentiation markers were as follows: OPG forward primer sequence, 5′-[sequence]-3′ and OPG reverse primer, 5′-[sequence]-3′ (annealing temperature, 60° C.); ALP forward primer sequence, 5′-[sequence]-3′ and ALP reverse primer, 5′-[sequence]-3′ (annealing temperature, 60° C.); BSP forward primer sequence, 5′-[sequence]-3′ and BSP reverse primer, 5′-[sequence]-3′ (annealing temperature, 60° C.)
# 5 μl of PCR product was loaded on 1% agarose gel, followed by electrophoresis, and then the bands were investigated using Gel-Doc.
substance,measurement,setting,value
NH2-Ala-Cys-Arg-Ser-Ala-Ile-Gly-Arg-Pro-Cys-COOH (H-ACRSAIGRPC-OH; cysteine pairing not given here) [SEQ ID NO: 1],expression of IL-1β increased by TNF-α treatment,IL-1β,inhibited
same,phosphorylation of PI3K by HGFR signal stimulation,Phospho-PI3K,increased
same,mineralization (Alizarin red staining),MC3T3-E1 cells,increased
same,expression of osteoprotegerin (OPG),osteoprotegerin (OPG),increased
same,expression of bone sialoprotein (BSP),bone sialoprotein (BSP),increased
same,"cell proliferation, HFDPC",[1],increased in a concentration-dependent manner
same,"cell proliferation, HFGMC",[2],increased in a concentration-dependent manner
same,"cell proliferation, HUVEC",[3],increased in a concentration-dependent manner
same,phosphorylation of ERK,Phospho-ERK (pERK),increased
same,level of PI3K,PI3K,increased
same,expression of β-catenin,β-catenin,increased
same,expression of IGF-1,IGF-1,increased
same,expression of KGF,KGF,increased
same,expression of DKK-1 increased by DHT,DKK-1,reduced
same,expression of alkaline phosphatase (ALP),[4],increased
